Measurements: patent US20240269139A1, “COMPOUNDS FOR TARGETED PROTEIN DEGRADATION OF KINASES” (DANA-FARBER CANCER INSTITUTE, INC., priority 2020, published 2024)
Read-outs that look alike come from different tables or passages of the source.

Columns and labels:
Assay type in all cases: cell-based
[1] = target: protein kinases (human kinome) (Homo sapiens, UniProt Q15131)
[2] = target: T1, protein kinases (human kinome) (Homo sapiens, UniProt O00444)
T1 sequence (O00444 1-970): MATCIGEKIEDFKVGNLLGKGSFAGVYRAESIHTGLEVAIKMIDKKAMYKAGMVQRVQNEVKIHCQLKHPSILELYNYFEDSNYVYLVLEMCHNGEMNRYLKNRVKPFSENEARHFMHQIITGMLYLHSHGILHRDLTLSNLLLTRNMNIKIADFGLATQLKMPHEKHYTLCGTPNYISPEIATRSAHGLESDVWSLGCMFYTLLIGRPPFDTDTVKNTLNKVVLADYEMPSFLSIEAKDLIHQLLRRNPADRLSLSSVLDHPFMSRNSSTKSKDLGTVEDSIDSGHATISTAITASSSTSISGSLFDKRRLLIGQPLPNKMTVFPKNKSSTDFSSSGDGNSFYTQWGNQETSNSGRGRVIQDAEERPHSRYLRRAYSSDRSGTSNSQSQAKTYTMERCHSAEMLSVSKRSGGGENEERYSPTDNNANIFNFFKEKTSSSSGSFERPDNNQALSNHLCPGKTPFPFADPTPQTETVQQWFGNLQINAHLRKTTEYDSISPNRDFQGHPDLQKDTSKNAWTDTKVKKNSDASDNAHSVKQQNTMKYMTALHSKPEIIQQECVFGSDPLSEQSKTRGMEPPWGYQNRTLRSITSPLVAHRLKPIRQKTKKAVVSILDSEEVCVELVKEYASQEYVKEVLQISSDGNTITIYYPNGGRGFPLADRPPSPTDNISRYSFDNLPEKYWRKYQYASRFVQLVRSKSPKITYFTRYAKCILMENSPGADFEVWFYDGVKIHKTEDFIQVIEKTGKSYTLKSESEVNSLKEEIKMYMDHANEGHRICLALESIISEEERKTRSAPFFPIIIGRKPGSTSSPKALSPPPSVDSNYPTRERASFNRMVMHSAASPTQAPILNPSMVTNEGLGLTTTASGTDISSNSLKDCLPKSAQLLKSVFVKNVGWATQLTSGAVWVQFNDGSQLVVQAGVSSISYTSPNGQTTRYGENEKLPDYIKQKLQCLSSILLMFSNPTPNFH

[3] = target: T2, protein kinases (human kinome) (Homo sapiens, UniProt Q6PHR2); settings: for logFC ULK3: ULK3 (Q6PHR2-1)
T2 sequence (Q6PHR2 1-472): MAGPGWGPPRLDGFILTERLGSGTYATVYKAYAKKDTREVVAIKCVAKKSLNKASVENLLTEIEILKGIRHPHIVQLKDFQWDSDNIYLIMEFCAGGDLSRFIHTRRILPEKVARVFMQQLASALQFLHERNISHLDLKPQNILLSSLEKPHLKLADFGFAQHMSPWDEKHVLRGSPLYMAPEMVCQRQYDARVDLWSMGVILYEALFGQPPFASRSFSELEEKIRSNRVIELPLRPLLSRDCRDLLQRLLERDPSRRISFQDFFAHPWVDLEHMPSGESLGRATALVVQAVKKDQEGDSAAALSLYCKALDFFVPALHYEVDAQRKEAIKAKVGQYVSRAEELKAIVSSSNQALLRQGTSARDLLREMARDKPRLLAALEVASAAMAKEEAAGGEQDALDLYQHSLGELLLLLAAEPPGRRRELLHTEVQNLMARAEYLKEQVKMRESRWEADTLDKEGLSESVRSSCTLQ

[4] = target: protein kinases (human kinome) (Homo sapiens, UniProt Q16659)
protein kinases (human kinome) (Homo sapiens, UniProt Q16659), sequence (Q16659 whole entry): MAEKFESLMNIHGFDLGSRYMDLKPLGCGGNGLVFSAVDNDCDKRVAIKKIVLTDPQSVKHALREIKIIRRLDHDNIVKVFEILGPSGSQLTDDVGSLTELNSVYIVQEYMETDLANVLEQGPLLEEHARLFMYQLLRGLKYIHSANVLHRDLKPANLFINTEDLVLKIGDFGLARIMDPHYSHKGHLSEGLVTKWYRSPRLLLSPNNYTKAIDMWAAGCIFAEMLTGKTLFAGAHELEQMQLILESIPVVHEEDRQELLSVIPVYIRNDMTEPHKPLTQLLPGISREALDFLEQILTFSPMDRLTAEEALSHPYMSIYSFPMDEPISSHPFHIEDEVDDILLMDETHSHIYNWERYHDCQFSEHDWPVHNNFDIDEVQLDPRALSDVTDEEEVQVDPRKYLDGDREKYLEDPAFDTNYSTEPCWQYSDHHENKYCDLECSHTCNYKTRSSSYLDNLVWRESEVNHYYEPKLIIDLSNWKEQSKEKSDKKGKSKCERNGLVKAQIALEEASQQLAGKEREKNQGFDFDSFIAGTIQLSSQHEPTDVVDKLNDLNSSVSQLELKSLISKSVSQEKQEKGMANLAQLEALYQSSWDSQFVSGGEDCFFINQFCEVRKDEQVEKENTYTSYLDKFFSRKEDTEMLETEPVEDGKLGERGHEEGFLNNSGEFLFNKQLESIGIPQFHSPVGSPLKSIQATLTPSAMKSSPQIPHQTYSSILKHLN

protein kinases (human kinome) (Homo sapiens, UniProt Q15131), sequence (Q15131 whole entry): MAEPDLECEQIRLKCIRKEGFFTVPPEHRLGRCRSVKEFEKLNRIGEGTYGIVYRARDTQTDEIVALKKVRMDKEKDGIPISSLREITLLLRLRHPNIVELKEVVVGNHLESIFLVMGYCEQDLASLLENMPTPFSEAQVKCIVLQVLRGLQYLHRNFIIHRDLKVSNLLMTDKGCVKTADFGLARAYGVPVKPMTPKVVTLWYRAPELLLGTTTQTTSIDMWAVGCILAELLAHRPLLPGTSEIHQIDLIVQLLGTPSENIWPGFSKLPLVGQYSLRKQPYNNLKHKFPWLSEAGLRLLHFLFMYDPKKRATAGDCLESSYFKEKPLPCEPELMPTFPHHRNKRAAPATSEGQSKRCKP

CC(C)S(=O)(=O)c1ccccc1Nc1nc(Nc2ccc(N3CCN(CCOCCNC(=O)CNc4cccc5c4C(=O)N(C4CCC(=O)NC4=O)C5=O)CC3)cc2)ncc1Cl (stereo not shown) [SK.3.91]
logFC ([1]; CDK10 (Q15131-1), experiment wp133, 4 hr): −0.544
logFC of CDK10 (Q15131-1) ([1]; experiment wp133, 4 hr): −0.544
logFC PLK4 ([2]; Accession O00444, experiment wp103, direction down): −1.243
logFC PLK4 ([2]; Accession O00444, experiment wp107, direction down): −1.036
logFC PLK4 ([2]; Accession O00444, experiment wp133, 1 hr, direction down): −0.726
logFC PLK4 ([2]; Accession O00444, experiment wp133, 2 hr, direction down): −1.523
logFC PLK4 ([2]; Accession O00444, experiment wp133, 4 hr, direction down): −2.258
logFC PLK4 ([2]; Accession O00444, experiment wp160, 2 hr, direction down): −0.9266
logFC PLK4 ([2]; Accession O00444, experiment wp160, 4 hr, direction down): −1.169
logFC PLK4 ([2]; PLK4 (O00444), experiment wp133, 1 hr): −0.726
logFC PLK4 ([2]; PLK4 (O00444), experiment wp133, 2 hr): −1.523
logFC PLK4 ([2]; PLK4 (O00444), experiment wp133, 4 hr): −2.258
logFC PLK4 ([2]; PLK4 (O00444), experiment wp160, 2 hr): −0.9266
logFC PLK4 ([2]; PLK4 (O00444), experiment wp160, 4 hr): −1.169
logFC PLK4 (O00444) ([2]; experiment wp103): −1.243
logFC PLK4 (O00444) ([2]; experiment wp107): −1.036
logFC ULK3 (Q6PHR2-1) ([3]; Experiment wp160, 2 hr): −0.503
logFC ULK3 (Q6PHR2-1) ([3]; Experiment wp172): −0.8151
logFC ULK3 ([3]; experiment wp016, 1 uM): −1.03
logFC ULK3 ([3]; experiment wp103): −0.9651
logFC ULK3 ([3]; experiment wp105): −0.837
logFC ULK3 ([3]; experiment wp133, 2 hr): −0.5817
logFC ULK3 ([3]; experiment wp133, 4 hr): −1.062
logFC ULK3 ([3]; experiment wp160, 2 hr): −0.503
logFC ULK3 ([3]; experiment wp160, 4 hr): −0.9689
logFC ULK3 ([3]; experiment wp172): −0.8151
logFC ULK3 (Q6PHR2-1) ([3]; experiment wp016, 1 uM): −1.03
logFC ULK3 (Q6PHR2-1) ([3]; experiment wp103): −0.9651
logFC ULK3 (Q6PHR2-1) ([3]; experiment wp105): −0.837
logFC ULK3 (Q6PHR2-1) ([3]; experiment wp133, 2 hr): −0.5817
logFC ULK3 (Q6PHR2-1) ([3]; experiment wp133, 4 hr): −1.062
logFC ULK3 (Q6PHR2-1) ([3]; experiment wp160, 4 hr): −0.9689
logFC ([4]; MAPK6 (Q16659), experiment wp133, 2 hr): −0.8253
logFC ([4]; MAPK6 (Q16659), experiment wp133, 2 hr, direction down): −0.8253
logFC ([4]; MAPK6 (Q16659), experiment wp133, 4 hr): −1.614
logFC ([4]; MAPK6 (Q16659), experiment wp133, 4 hr, direction down): −1.614
logFC ([4]; MAPK6 Q16659, experiment wp103): −1.525
logFC MAPK6 ([4]; MAPK6 Q16659, experiment wp103): −1.525
logFC ([4]; MAPK6 Q16659, experiment wp107): −1.345
logFC MAPK6 ([4]; MAPK6 Q16659, experiment wp107): −1.345
